One assay has as its target ATM (Homo sapiens (Human), UniProt Q13315). The assay can be described thus: ATM in Cell Western Assay (pKAP1 in etoposide-treated MCF-7 cells). The class given is cell-based. The essentials:
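After paraformaldehyde fixation and Triton X-100 permeabilization, immunostained plates were read by infrared scanning (ODYSSEY CLx). Compound was given as 10 doses, 3-fold dilutions from a 1 μM final top concentration.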

Another assay concerns the target DNA-PK (Homo sapiens (Human), UniProt P78527). Description: DNA-PK Enzyme-Linked Immunosorbent Assay (phosphorylation of GST-p53 (1-101) peptide). As to conditions: ELISA. The class given is biochemical. The essentials: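 Inhibition measured by 450 nm absorbance after HRP/TMB detection of phospho-Ser15 on immobilized GST-p53 (1-101). The kinase reaction used 0.1 μg/mL DNA-PK and 20 μM ATP, 1 h at 25 °C. Ten 3-fold compound dilutions, top final concentration 100 nM.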
On the technique in general: ELISA stands for enzyme-linked immunosorbent assay.

[1] abbreviates: MCF-7 cells, etoposide 100 μM, 1 hr, pKAP1 readout.
Where [2] appears, read: pKAP1 in etoposide-treated MCF-7 cells.

Molecules are shown by their SMILES. Structures can show the parent of a compound that is named as a salt. Bounds are passed on as bounds.

In general, IC50 refers to the concentration needed to halve the response being measured. A higher IC50 goes with weaker potency in that assay.

ATM, sequence (Q13315 whole entry): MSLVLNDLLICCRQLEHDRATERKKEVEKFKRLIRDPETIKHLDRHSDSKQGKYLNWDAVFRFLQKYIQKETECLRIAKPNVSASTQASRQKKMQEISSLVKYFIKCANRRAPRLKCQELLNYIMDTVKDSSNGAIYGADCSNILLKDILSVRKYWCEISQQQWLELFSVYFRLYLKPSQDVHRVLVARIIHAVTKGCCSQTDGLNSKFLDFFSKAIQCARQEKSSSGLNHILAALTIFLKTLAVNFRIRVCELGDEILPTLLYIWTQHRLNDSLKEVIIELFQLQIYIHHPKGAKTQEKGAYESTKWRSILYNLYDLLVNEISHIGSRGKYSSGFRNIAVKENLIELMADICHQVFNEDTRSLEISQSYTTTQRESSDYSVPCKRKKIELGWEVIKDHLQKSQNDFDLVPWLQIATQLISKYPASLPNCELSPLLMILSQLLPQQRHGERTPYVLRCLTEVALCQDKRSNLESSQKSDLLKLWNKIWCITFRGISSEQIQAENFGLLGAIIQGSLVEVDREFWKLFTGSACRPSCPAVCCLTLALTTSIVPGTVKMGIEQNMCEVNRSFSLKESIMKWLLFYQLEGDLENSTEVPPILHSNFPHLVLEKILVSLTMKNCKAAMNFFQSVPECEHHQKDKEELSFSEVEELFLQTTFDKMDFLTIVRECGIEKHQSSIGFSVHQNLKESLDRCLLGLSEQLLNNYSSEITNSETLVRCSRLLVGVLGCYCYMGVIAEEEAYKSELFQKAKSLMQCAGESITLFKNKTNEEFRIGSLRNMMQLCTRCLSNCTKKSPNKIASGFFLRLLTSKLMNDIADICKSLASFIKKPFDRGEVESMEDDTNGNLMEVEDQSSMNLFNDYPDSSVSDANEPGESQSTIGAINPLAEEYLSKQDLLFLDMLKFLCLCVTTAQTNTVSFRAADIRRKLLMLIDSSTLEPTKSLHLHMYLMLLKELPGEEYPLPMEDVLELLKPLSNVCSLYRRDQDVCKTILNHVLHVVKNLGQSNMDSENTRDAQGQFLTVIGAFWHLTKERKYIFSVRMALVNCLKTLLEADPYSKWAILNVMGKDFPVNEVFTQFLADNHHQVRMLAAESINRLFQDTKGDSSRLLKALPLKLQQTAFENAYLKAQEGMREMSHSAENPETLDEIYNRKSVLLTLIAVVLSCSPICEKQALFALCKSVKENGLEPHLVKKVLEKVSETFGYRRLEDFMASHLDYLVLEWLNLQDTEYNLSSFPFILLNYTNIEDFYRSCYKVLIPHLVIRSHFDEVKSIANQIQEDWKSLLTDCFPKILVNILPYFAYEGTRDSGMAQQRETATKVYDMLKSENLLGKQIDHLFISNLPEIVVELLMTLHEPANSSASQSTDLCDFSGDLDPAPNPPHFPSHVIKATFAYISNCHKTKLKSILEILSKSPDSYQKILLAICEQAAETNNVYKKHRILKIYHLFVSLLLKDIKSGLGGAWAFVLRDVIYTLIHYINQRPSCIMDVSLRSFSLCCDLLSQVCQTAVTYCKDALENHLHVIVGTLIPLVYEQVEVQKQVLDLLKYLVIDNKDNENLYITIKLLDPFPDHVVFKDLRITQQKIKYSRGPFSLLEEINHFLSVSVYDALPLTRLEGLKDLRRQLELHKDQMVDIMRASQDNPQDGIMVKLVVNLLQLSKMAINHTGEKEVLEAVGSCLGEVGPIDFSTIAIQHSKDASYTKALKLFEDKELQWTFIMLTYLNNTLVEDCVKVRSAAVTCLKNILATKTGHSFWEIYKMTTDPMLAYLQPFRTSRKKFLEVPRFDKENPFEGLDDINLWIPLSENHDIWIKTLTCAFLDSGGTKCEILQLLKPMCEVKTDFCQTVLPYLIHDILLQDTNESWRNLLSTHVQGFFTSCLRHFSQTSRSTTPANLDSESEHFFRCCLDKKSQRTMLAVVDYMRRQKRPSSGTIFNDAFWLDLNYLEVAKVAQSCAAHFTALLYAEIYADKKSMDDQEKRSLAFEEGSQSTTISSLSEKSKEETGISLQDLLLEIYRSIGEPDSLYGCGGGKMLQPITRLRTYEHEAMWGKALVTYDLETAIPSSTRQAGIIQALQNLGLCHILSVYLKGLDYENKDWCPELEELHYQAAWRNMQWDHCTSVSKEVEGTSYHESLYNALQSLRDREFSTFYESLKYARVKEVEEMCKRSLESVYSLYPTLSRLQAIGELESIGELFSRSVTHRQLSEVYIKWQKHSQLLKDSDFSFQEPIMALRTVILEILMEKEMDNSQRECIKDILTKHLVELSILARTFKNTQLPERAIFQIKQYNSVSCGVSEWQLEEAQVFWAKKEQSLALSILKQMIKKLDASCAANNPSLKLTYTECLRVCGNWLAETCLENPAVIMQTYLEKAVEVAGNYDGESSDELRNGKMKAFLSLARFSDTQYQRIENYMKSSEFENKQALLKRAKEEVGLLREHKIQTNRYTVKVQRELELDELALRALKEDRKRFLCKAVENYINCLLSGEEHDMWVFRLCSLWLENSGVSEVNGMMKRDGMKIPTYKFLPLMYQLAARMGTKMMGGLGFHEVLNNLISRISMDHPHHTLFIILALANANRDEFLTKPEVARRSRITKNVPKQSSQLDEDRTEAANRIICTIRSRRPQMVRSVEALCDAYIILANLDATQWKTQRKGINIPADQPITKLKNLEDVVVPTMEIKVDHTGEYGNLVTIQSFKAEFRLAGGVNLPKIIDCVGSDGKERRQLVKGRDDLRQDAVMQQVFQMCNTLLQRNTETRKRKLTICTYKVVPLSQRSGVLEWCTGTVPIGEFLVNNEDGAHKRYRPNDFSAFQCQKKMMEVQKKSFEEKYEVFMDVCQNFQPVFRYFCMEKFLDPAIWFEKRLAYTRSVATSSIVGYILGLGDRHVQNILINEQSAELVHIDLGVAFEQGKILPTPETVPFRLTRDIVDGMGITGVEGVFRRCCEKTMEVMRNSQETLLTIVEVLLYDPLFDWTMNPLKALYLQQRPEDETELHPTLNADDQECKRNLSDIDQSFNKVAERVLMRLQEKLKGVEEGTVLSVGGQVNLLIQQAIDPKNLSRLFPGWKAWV

Consider `CN(C)CCCOc1ncc(-c2ccc3ncc4c(c3c2)C2(CCC2)C(=O)N4C)cc1NS(=O)(=O)c1cc(Cl)cc(C(F)(F)F)c1` [Example 154, 3-Chloro-N-(2-(3-(dimethylamino)propoxy)-5-(3′-methyl-2′-oxo-2′,3′-dihydrospiro[cyclobutane-1,1′-pyrrolo[2,3-c]quinolin]-8′-yl)pyridin-3-yl)-5-(trifluoromethyl)benzenesulfonamide hydrochloride], for which the IC50 at ATM (setting [1]) and against DNA-PK (ATP 20 μM) was 1 to 100 nM each time.
For `CNC1CN(c2ncc(-c3cc4c5c(cnc4cc3F)N(C)C(=O)C53CCC3)cc2NS(=O)(=O)C2CC2)C1` [Example 333, N-(5-(7′-Fluoro-3′-methyl-2′-oxo-2′,3′-dihydrospiro [cyclobutane-1,1′-pyrrolo [2,3-c]quinolin]-8′-yl)-2-(3-(methylamino)azetidin-1-yl)pyridin-3-yl)cyclopropanesulfonamide], the IC50 against ATM (setting [1]) and against DNA-PK (ATP 20 μM) was 0.5 to 1 nM each time.
As for `CC(C)NCCOc1ncc(-c2cc3c(cc2F)ncc2c3[C@]3(C[C@H](c4cccnc4)C3)C(=O)N2C)cc1NS(C)(=O)=O` [Example 436, cis-N-(5-(7′-Fluoro-3′-methyl-2′-oxo-3-(pyridin-3-yl)-2′,3′-dihydrospiro[cyclobutane-1,1′-pyrrolo[2,3-c]quinolin]-8′-yl)-2-(2-(isopropylamino)ethoxy)pyridin-3-yl)methanesulfonamide], the IC50 against ATM (setting [2]) and against DNA-PK (20 μM ATP) was 1 to 100 nM each time.
On to `CN(C)CCCOc1ncc(-c2ccc3ncc4c(c3c2)C2(CCCCC2)C(=O)N4C)cc1NS(=O)(=O)c1ccccc1` [Example 3, N-(2-(3-(Dimethylamino)propoxy)-5-(3′-methyl-2′-oxo-2′,3′-dihydrospiro[cyclohexane-1,1′-pyrrolo[2,3-c]quinolin]-8′-yl)pyridin-3-yl) benzenesulfonamide], for which the IC50 on ATM (setting [1]) and at DNA-PK (ATP 20 μM) was 1 to 100 nM in each case.
Regarding `CC(C)NCCOc1ncc(-c2cc3c(cc2F)ncc2c3[C@]3(C[C@@H](c4cccnc4)C3)C(=O)N2C)cc1NS(C)(=O)=O` [Example 437, trans-N-{5-(7′-Fluoro-3′-methyl-2′-oxo-3-(pyridin-3-yl)-2′,3′-dihydrospiro[cyclobutane-1,1′-pyrrolo[2,3-c]quinolin]-8′-yl)-2-(2-(isopropylamino)ethoxy)pyridin-3-yl)methanesulfonamide], the IC50 against ATM (setting [2]) is more than 100 nM; at DNA-PK (20 μM ATP) it was 1 to 100 nM.
For the molecule `COC1CCCN(CCCOc2ncc(-c3ccc4ncc5c(c4c3)C3(CCC3)C(=O)N5C)cc2NS(C)(=O)=O)C1` (stereo not drawn) [Example 280, N-(2-(3-(3-Methoxypiperidin-1-yl)propoxy)-5-(3′-methyl-2′-oxo-2′,3′-dihydrospiro[cyclobutane-1,1′-pyrrolo[2,3-c]quinolin]-8′-yl)pyridin-3-yl)methanesulfonamide], the results for the IC50 against ATM (setting [1]) and on DNA-PK (ATP 20 μM) were 1 to 100 nM and 0.5 to 1 nM, respectively.
Turning to `CN1C(=O)C2(CCC2)c2c1cnc1cc(F)c(-c3cnc(N4CC(N(C)C)C4)c(NS(=O)(=O)C4CC4)c3)cc21` [Example 319, N-(2-(3-(Dimethylamino)azetidin-1-yl)-5-(7′-fluoro-3′-methyl-2′-oxo-2′,3′-dihydrospiro[cyclobulane-1,1′-pyrrolo[2,3-c]quinolin]-8′-yl)pyridin-3-yl)cyclopropanesulfonamide hydrochloride], the IC50 against ATM (setting [1]) and against DNA-PK (ATP 20 μM) was 1 to 100 nM each time.
Take `CN(C)CCCOc1ncc(-c2ccc3ncc4c(c3c2)C2(CC2)C(=O)N4C)cc1NS(=O)(=O)c1ccsc1` [Example 92, N-(2-(3-(Dimethylamino)propoxy)-5-(3′-methyl-2′-oxo-2′,3′-dihydrospiro [cyclopropane-1,1′-pyrrolo[2,3-c]quinolin]-8′-yl)pyridin-3-yl)thiophene-3-sulfonamide]: the IC50 was 0.5 to 1 nM on ATM (setting [1]) and less than 0.5 nM at DNA-PK (ATP 20 μM).
On to `Cc1ncc(-c2ccc3ncc4c(c3c2)C2(CC2)C(=O)N4C)cc1NS(=O)(=O)c1ccccc1` [Example 24, N-(2-Methyl-5-(3′-methyl-2′-oxo-2′,3′-dihydrospiro[cyclopropane-1,1′-pyrrolo[2,3-c]quinolin]-8′-yl)pyridin-3-yl)benzenesulfonamide], for which the figures for the IC50 against ATM (setting [1]) and at DNA-PK (ATP 20 μM) were 1 to 100 nM and less than 0.5 nM, respectively.
Take `CN(C)CCCOc1ncc(-c2ccc3ncc4c(c3c2)C2(CCC2)C(=O)N4C)cc1NS(=O)(=O)c1cccc(C(F)(F)F)c1` [Example 150, N-(2-(3-(Dimethylamino)propoxy)-5-(3′-methyl-2′-oxo-2′,3′-dihydrospiro[cyclobutane-1,1′-pyrrolo[2,3-c]quinolin]-8′-yl)pyridin-3-yl)-3-(trifluoromethyl)benzenesulfonamide]: the IC50 against ATM (setting [1]) and at DNA-PK (ATP 20 μM) was 1 to 100 nM throughout.
As to `CN(C)CCCOc1ncc(-c2ccc3ncc4c(c3c2)C2(CC2)C(=O)N4C)cc1NS(=O)(=O)c1ccc(OC(F)F)cc1` [Example 126, 4-(Difluoromethoxy)-N-(2-(3-(dimethylamino)propoxy)-5-(3′-methyl-2′-oxo-2′,3′-dihydrospiro[cyclopropane-1,1′-pyrrolo[2,3-c]quinolin]-8′-yl)pyridin-3-yl)benzenesulfonamide], the IC50 against ATM (setting [1]) was 1 to 100 nM; against DNA-PK (ATP 20 μM), less than 0.5 nM.
As for `CNCCCCOc1ncc(-c2ccc3ncc4c(c3c2)C2(CC2)C(=O)N4C)cc1NS(=O)(=O)c1ccccc1` [Example 75, N-(5-(3-Methyl-2′-oxo-2′,3′-dihydrospiro [cyclopropane-1,1′-pyrrolo[2,3-c]quinolin]-8′-yl)-2-(4-(methylamino)butoxy)pyridin-3-yl) benzenesulfonamide], the IC50 on ATM (setting [1]) and against DNA-PK (ATP 20 μM) was 1 to 100 nM each time.
Consider `CN(C)CCCOc1ncc(-c2ccc3ncc4c(c3c2)C2(CC2)C(=O)N4C)cc1NS(=O)(=O)c1ccc(F)cc1` [Example 88, N-(2-(3-(Dimethylamino)propoxy)-5-(3′-methyl-2′-oxo-2′,3′-dihydrospiro [cyclopropane-1,1′-pyrrolo[2,3-c]quinolin]-8′-yl)pyridin-3-yl)-4-fluorobenzenesulfonamide], for which the IC50 against ATM (setting [1]) is 0.5 to 1 nM; at DNA-PK (ATP 20 μM), less than 0.5 nM.
`CN(C)CCOc1ncc(-c2ccc3ncc4c(c3c2)C2(CCCC2)C(=O)N4C)cc1NS(=O)(=O)c1ccccc1` [Example 6, N-(2-(2-(Dimethylamino)ethoxy)-5-(3′-methyl-2′-oxo-2′,3′-dihydrospiro[cyclopentane-1,1′-pyrrolo[2,3-c]quinolin]-8′-yl)pyridin-3-yl)benzenesulfonamide]: the results for the IC50 at ATM (setting [1]) and against DNA-PK (ATP 20 μM) were 1 to 100 nM and 0.5 to 1 nM, respectively.
In the same order, the values of `CN(C)CCCOc1ncc(-c2ccc3ncc4c(c3c2)C2(CCC2)C(=O)N4C)cc1NS(=O)(=O)c1ccc(F)c(C#N)c1` [Example 159, 3-Cyano-N-(2-(3-(dimethylamino)propoxy)-5-(3′-methyl-2′-oxo-2′,3′-dihydrospiro [cyclobutane-1,1′-pyrrolo[2,3-c]quinolin]-8′-yl)pyridin-3-yl)-4-fluorobenzene-sulfonamide hydrochloride] are 0.5 to 1 nM and 0.5 to 1 nM.
In the same order, the values of `CN(C)CCCOc1ncc(-c2cc3c4c(cnc3cc2F)N(C)C(=O)C42CC2)cc1NS(=O)(=O)c1ccccc1` [Example 65, N-(2-(3-(Dimethylamino)propoxy)-5-(7′-fluoro-3′-methyl-2′-oxo-2′,3′-dihydrospiro [cyclopropane-1,1′-pyrrolo[2,3-c]quinolin]-8′-yl)pyridin-3-yl) benzenesulfonamide] are 1 to 100 nM and 1 to 100 nM.
On the same counts, the results for `CNCCOc1ncc(-c2ccc3ncc4c(c3c2)C2(CC2)C(=O)N4C)cc1NS(=O)(=O)c1ccccc1` [Example 43, N-(5-(3′-Methyl-2′-oxo-2′,3′-dihydrospiro [cyclopropane-1,1′-pyrrolo[2,3-c]quinolin]-8′-yl)-2-(2-(methylamino)ethoxy)pyridin-3-yl) benzenesulfonamide] are 1 to 100 nM and 0.5 to 1 nM.
For the molecule `CC(C)NCCOc1ncc(-c2cc3c(cc2F)ncc2c3[C@]3(C[C@H](Cc4ccccc4)C3)C(=O)N2C)cc1NS(C)(=O)=O` [Example 451, cis-N-(5-(3-Benzyl-7′-fluoro-3′-methyl-2′-oxo-2′,3′-dihydrospiro[cyclobutane-1,1′-pyrrolo[2,3-c]quinolin]-8′-yl)-2-(2-(isopropylamino)ethoxy)pyridin-3-yl)methanesulfonamide], the IC50 at ATM (setting [2]) and at DNA-PK (20 μM ATP) was 1 to 100 nM each time.
On to `CN1C(=O)C2(CCC2)c2c1cnc1ccc(-c3cnc(N4CCC(N5CCOCC5)CC4)c(NS(C)(=O)=O)c3)cc21` [Example 357, N-(5-(3′-Methyl-2′-oxo-2′,3′-dihydrospiro[cyclobutane-1,1′-pyrrolo[2,3-c]quinolin]-8′-yl)-2-(4-morpholinopiperidin-l-yl)Pyridin-3-yl)methanesulfonamide hydrochloride], for which the IC50 against ATM (setting [2]) and against DNA-PK (20 μM ATP) was 0.5 to 1 nM each time.
As for `CN(C)CCCOc1ncc(-c2ccc3ncc4c(c3c2)C2(CCC2)C(=O)N4C)cc1NS(=O)(=O)N1CCCC1` [Example 244, N-(2-(3-(Dimethylamino)propoxy)-5-(3′-methyl-2′-oxo-2′,3′-dihydrospiro [cyclobutane-1,1′-pyrrolo[2,3-c]quinolin]-8′-yl)pyridin-3-yl)pyrrolidine-1-sulfonamide], the IC50 at ATM (setting [1]) and against DNA-PK (ATP 20 μM) was 1 to 100 nM each time.
Take `CC(C)NCCOc1ncc(-c2cc3c(cc2F)ncc2c3[C@]3(C[C@H](c4cccc(=O)[nH]4)C3)C(=O)N2C)cc1NS(C)(=O)=O` [Example 440, cis-N-(5-(7′-Fluoro-3′-methyl-2′-oxo-3-(6-oxo-1,6-dihydropyridin-2-yl)-2′,3′-dihydrospiro[cyclobutane-1,1′-pyrrolo[2,3-c]quinolin]-8′-yl)-2-(2-(isopropylamino)ethoxy)pyridin-3-yl)methanesulfonamide]: the IC50 against ATM (setting [2]) is more than 100 nM; against DNA-PK (20 μM ATP) it was 1 to 100 nM.

Values taken from patent publication US12187742B2 (XRAD Therapeutics, Inc., priority 2018, dated 2025).
